Values joined by “and” are separate entries in the source; they are usually repeats but may differ in a detail not shown here. Identical values can stand only once. Like-named read-outs stand apart in the source and are kept apart here.
Experiments:
CRAF^WT = CRAF^WT (Homo sapiens, UniProt P04049); test: ATP and MEK titrations by TR-FRET (Michaelis constants, substrate inhibition)
BRAF^KD = BRAF^KD (Homo sapiens, UniProt P15056); test: as above
CRAF^SSDD = CRAF^SSDD (Homo sapiens, UniProt P04049, Y340D/Y341D); test: as above
BRAF^WT = target: T1, BRAF^WT (Homo sapiens, UniProt P15056); test: as above; assay type: biochemical; conditions: apparent Ki of substrate inhibition by ATP
T1 construct: His6 (N); made in house; host or cells: SF9 insect cells (baculovirus)
T1 sequence (P15056 419-766): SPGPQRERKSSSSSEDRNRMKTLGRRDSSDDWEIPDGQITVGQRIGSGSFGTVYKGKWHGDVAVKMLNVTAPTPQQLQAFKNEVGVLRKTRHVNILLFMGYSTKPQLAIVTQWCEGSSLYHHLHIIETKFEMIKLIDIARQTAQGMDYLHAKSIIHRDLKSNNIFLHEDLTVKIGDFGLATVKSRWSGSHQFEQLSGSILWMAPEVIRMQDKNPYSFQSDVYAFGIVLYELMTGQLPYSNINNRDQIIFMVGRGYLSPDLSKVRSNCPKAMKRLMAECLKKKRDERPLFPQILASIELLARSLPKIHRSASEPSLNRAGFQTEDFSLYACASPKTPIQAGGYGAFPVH

BRAF^V600E = BRAF^V600E (Homo sapiens, UniProt P15056, V600E); test: as above
ARAF^SSDD = target: T2, ARAF^SSDD (Homo sapiens, UniProt P10398, G300S/Y301D/Y302D); test: as above
T2 sequence (P10398 274-606 G300S/Y301D/Y302D): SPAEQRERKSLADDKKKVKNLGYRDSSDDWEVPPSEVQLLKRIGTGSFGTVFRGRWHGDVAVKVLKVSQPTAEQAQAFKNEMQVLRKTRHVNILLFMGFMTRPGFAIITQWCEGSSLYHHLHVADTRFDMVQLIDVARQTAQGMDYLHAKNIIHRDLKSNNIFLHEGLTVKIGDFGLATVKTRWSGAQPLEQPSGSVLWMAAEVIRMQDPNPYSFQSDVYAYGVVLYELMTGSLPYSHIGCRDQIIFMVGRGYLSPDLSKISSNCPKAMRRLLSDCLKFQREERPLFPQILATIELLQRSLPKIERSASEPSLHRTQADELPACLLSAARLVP

[1] = target: T3, CRAF^SSDD (MEK1^SASA:CRAF^SSDD:14-3-3 dimer complex) (Homo sapiens, UniProt P04049, Y340D/Y341D); test: TR-FRET kinase inhibition assay (phosphorylation of biotinylated MEK1), CRAF SSDD dimer complex; assay type: biochemical; conditions: for CRAF^SSDD nH (Hill slope): four-parameter fit, 200 μM ATP; for CRAF^SSDD IC50: 1 nM enzyme, 250 nM MEK1, 200 μM ATP, 40 min preincubation, 30 min reaction; for IC50: read-out: CRAF^SSDD IC50
T3 construct: His6 (N); StrepII (N); made in house; host or cells: insect cells (baculovirus)

[2] = target: T4, CRAF^WT (MEK1:CRAF^WT:14-3-3 dimer complex) (Homo sapiens, UniProt P04049); test: TR-FRET kinase inhibition assay (phosphorylation of biotinylated MEK1), CRAF WT dimer complex; assay type: biochemical; conditions: for CRAF^WT nH (Hill slope): four-parameter fit, 200 μM ATP; for CRAF^WT IC50 / IC50: 4 nM enzyme, 250 nM MEK1, 200 μM ATP, 40 min preincubation, 30 min reaction; for IC50: read-out: CRAF^WT IC50
T4 construct: His6 (N); made in house; host or cells: insect cells (baculovirus)

[3] = target: T5, BRAF^WT (MEK1^SASA:BRAF^WT:14-3-3 dimer complex) (Homo sapiens, UniProt P15056); test: biochemical; assay type: biochemical; conditions: for effect of increasing ATP concentration on IC50 for BRAF^WT dimers: 10, 100, 1000 μM ATP
T5 construct: His6 (N); made in house; host or cells: SF9 insect cells (baculovirus)
T5 sequence (P15056 419-766, one chain of several): as the sequence (P15056 419-766) above

[4] = target: T6, ARAF^SSDD (MEK1^SASA:ARAF^SSDD-14-3-3ε dimer complex) (Homo sapiens, UniProt P10398, G300S/Y301D/Y302D); test: TR-FRET kinase inhibition assay (phosphorylation of biotinylated MEK1), ARAF dimer complex; assay type: biochemical; conditions: for IC50: 10 nM enzyme, 250 nM MEK1, 200 μM ATP, 40 min preincubation, 30 min reaction; for ARAF^SSDD nH (Hill slope): four-parameter fit, 200 μM ATP; for cooperativity of inhibition of ARAF^SSDD: from Hill constants, less than −1.0 indicates positive cooperativity
T6 construct: ARAF^274-606, G300S, Y301/302D-14-3-3 ε with N-terminal His6 and StrepII tags; His6 (N); StrepII (N); made in house; host or cells: SF9 insect cells (baculovirus)
T6 sequence (P10398 274-606 G300S/Y301D/Y302D): T2 sequence (P10398 274-606 G300S/Y301D/Y302D)

[5] = target: T7, BRAF^V600E (MEK1^SASA:BRAF^V600E monomer complex) (Homo sapiens, UniProt P15056, V600E); test: TR-FRET kinase inhibition assay (phosphorylation of biotinylated MEK1), BRAF V600E monomer complex; assay type: biochemical
T7 construct: His6 (N); intein (C, cleaved yes); made in house; host or cells: insect cells (baculovirus)

[6] = system: CRAF^WT (MEK1:CRAF^WT:14-3-3 dimer complex); test: TR-FRET kinase inhibition assay (phosphorylation of biotinylated MEK1), CRAF WT dimer complex; assay type: biochemical; conditions: IC50 ratio ARAF/CRAF
[7] = 1 nM enzyme, 250 nM MEK1, 200 μM ATP, 40 min preincubation, 30 min reaction, read-out: BRAF^WT IC50
[8] = IC50 of BRAF^WT at 10 μM ATP, 10 μM ATP
[9] = IC50 of BRAF^WT at 1000 μM ATP, 1000 μM ATP

Nc1ncnc2c1ncn2[C@@H]1O[C@H](COP(=O)(O)OP(=O)(O)OP(=O)(O)O)[C@@H](O)[C@H]1O [ATP]
Ki (CRAF^WT; read-out: Ki-ATP, CRAF^WT, apparent Ki of substrate inhibition by ATP): > 15000 µM
Km (CRAF^WT; read-out: Km-ATP, CRAF^WT, ATP titration, substrate inhibition fit): 1.56 ± 1.5 µM
Km-ATP, BRAF^KD (BRAF^KD; ATP titration, substrate inhibition fit): 0.18 ± 0.04 µM
Ki (BRAF^KD; read-out: Ki-ATP, BRAF^KD, apparent Ki of substrate inhibition by ATP): 3530 ± 580 µM
Ki (CRAF^SSDD; read-out: Ki-ATP, CRAF^SSDD, apparent Ki of substrate inhibition by ATP): > 15000 µM
Km (CRAF^SSDD; read-out: Km-ATP, CRAF^SSDD, ATP titration, substrate inhibition fit): 0.73 ± 0.38 µM
Ki (BRAF^WT): 4840 ± 2850 µM
Ki (BRAF^V600E; read-out: Ki-ATP, BRAF^V600E, apparent Ki of substrate inhibition by ATP): 6340 ± 4070 µM
Km (BRAF^V600E; read-out: Km-ATP, BRAF^V600E, ATP titration, substrate inhibition fit): 12.6 ± 7.8 µM
Ki (ARAF^SSDD; read-out: Ki-ATP, ARAF^SSDD, apparent Ki of substrate inhibition by ATP): > 15000 µM
Km (ARAF^SSDD; read-out: Km-ATP, ARAF^SSDD, ATP titration, substrate inhibition fit): 1.58 ± 0.19 µM

Cc1ccc(NC(=O)c2cccc(C(C)(C)C#N)c2)cc1Nc1ccc2ncn(C)c(=O)c2c1 [AZ628]
CRAF^SSDD nH (Hill slope) [1]: −2.6
CRAF^WT nH (Hill slope) [2]: −1.1
BRAF^WT nH (Hill slope) ([3]; four-parameter fit, 200 μM ATP): −3.1
IC50 [4]: 0.0441 ± 0.0212 µM
ARAF^SSDD nH (Hill slope) [4]: −1.8
cooperativity of inhibition of ARAF^SSDD [4]: clear positive cooperativity

Cc1ccc2c(Nc3cccc(Cl)c3F)nccc2c1NC(=O)c1csc2c(N)ncnc12 [Belvarafenib]
IC50 [5]: 0.0133 ± 0.00087 µM
CRAF^SSDD IC50 [1]: single-digit nanomolar
CRAF^SSDD nH (Hill slope) [1]: −3.0
IC50 [1]: 0.00566 ± 0.00112 µM
CRAF^WT IC50 [2]: single-digit nanomolar
IC50 [2]: 0.00505 ± 0.00181 µM
CRAF^WT nH (Hill slope) [2]: −1.6
IC50 [3, 7]: 0.0199 ± 0.00098 µM
effect of increasing ATP concentration on IC50 for BRAF^WT dimers [3]: only modestly affected
IC50 [3, 8]: 0.0142 ± 0.00636 µM
IC50 ([3]; IC50 of BRAF^WT at 100 μM ATP, 100 μM ATP): 0.0215 ± 0.00923 µM
IC50 [3, 9]: 0.0293 ± 0.00875 µM
BRAF^WT nH (Hill slope) ([3]; four-parameter fit, 200 μM ATP): −3.0
IC50 [4]: 0.0699 ± 0.032 µM
ARAF^SSDD nH (Hill slope) [4]: −1.3

CC(C)(C)c1nc(-c2cccc(NS(=O)(=O)c3c(F)cccc3F)c2F)c(-c2ccnc(N)n2)s1 [Dabrafenib]
CRAF^SSDD nH (Hill slope) [1]: −1.0
CRAF^WT nH (Hill slope) [2]: −0.9
BRAF^WT nH (Hill slope) ([3]; four-parameter fit, 200 μM ATP): −1.4
IC50 [4]: 0.009 µM and 0.00858 µM
ARAF^SSDD nH (Hill slope) [4]: −1.1

OCCn1cc(-c2ccc3c(c2)CC/C3=N\O)c(-c2ccncc2)n1 [GDC0879]
CRAF^SSDD nH (Hill slope) [1]: −0.7
CRAF^WT nH (Hill slope) [2]: −1.0
BRAF^WT nH (Hill slope) [3]: −0.9
ARAF^SSDD nH (Hill slope) [4]: −0.4

CNc1ncc2cc(-c3cc(NC(=O)NCCC(C)(C)C)c(F)cc3C)c(C)nc2n1 [LY3009120]
CRAF^SSDD nH (Hill slope) [1]: −2.9
CRAF^WT nH (Hill slope) [2]: −1.4
BRAF^WT nH (Hill slope) ([3]; four-parameter fit, 200 μM ATP): −2.2
ARAF^SSDD nH (Hill slope) [4]: −3.6
cooperativity of inhibition of ARAF^SSDD [4]: clear positive cooperativity

Cc1ccc(NC(=O)c2ccnc(C(F)(F)F)c2)cc1-c1cc(OCCO)nc(N2CCOCC2)c1 [Naporafenib]
IC50 [5]: 0.0513 ± 0.00116 µM
CRAF^SSDD IC50 [1]: single-digit nanomolar
CRAF^SSDD nH (Hill slope) [1]: −2.6
IC50 [1]: 0.00605 ± 0.00241 µM
CRAF^WT IC50 [2]: single-digit nanomolar
IC50 [2]: 0.00546 ± 0.00267 µM
CRAF^WT nH (Hill slope) [2]: −1.9
fold greater potency against CRAF dimers than ARAF dimers [6]: approximately 30 fold
IC50 [3, 7]: 0.0371 ± 0.023 µM
effect of increasing ATP concentration on IC50 for BRAF^WT dimers [3]: only modestly affected
IC50 [3, 8]: 0.0291 ± 0.00831 µM
IC50 [3, 9]: 0.0549 ± 0.0165 µM
BRAF^WT nH (Hill slope) ([3]; four-parameter fit, 200 μM ATP): −2.3
IC50 ([3]; read-out: IC50 of BRAF^WT at 100 μM ATP, 100 μM ATP): 0.0382 ± 0.0114 µM
IC50 [4]: 0.161 ± 0.0192 µM
ARAF^SSDD nH (Hill slope) [4]: −3.2
cooperativity of inhibition of ARAF^SSDD [4]: clear positive cooperativity

Source: article PMC12630025, “Characterization and inhibitor sensitivity of ARAF, BRAF, and CRAF kinases [drawing 1]” (The Journal of Biological Chemistry, 2025)
